In assay [1] the test system is guinea pig pancreatic acini. The note with it: cited from earlier work.
Assay [2] relates to bombesin-induced stimulation of the secretion of the enzyme amylase. The following applies: rat, in vivo. On the procedure: (c) An in vivo test involving the measurement of the antagonism of the bombesin-induced stimulation of the secretion of the enzyme amylase into the pancreatic duct of the rat by a test compound administered orally, sub-cutaneously or intravenously. Bombesin and the test compound can be administered concomitantly or the test compound can be predosed at any convenient interval, for example 30, 60, 90, 120, 150 or 180 minutes, before bombesin is dosed. Amylase was measured by analysis of the conversion of starch into maltose, on incubation of the starch/amylase mixture at 30° C. for 15 minutes, using a spectrophotometric assay as originally described by P. Bernfield in `Methods in Enzymology` Vol. I, p17 (Editors Colowick and Kaplan, Academic Press, New York, 1955). Bombesin (5 micrograms/kg, intravenously) causes a large, but submaximal, increase of amylase secretion within 30 minutes.

Assay [3] has as its system mouse Swiss 3T3 fibroblast cells. Format: cell-based. The following applies: 3 h. On the procedure: (b) An in vitro assay which assesses the ability of a test compound to inhibit the Neuromedin C stimulated mitogenesis of mouse Swiss 3T3 fibroblast cells as determined by the uptake of [^3 H]-thymidine. The test is similar to those described by N. Corps., L. Rees and K. Brown, Biochem. Journal, 1985, 231, 781 and I. Zachary and E. Rozengurt, Proc. Nat. Acad. Sci. U.S.A., 1985, 82, 7616, except that GRP (18-27) (0.2 or 0.4 nM) was used to stimulate growth and the test compounds were dissolved in an assay medium containing 0.1% bovine serum albumin and 0.4% dimethylsulphoxide and […]

The test system of assay [4] is bombesin-induced hypothermia. The following applies: rat; cited from earlier work.
The target of assay [5] is T1, bombesin receptor of mouse Swiss 3T3 fibroblast cells (Mus musculus, UniProt P21729).
T1 construct: the bombesin receptor of mouse Swiss 3T3 fibroblast cells; endogenous in cells; host or cells: mouse Swiss 3T3 fibroblast cells
Put plainly: Test (a): in vitro binding assay, displacement of [I125]GRP. The following applies: ambient temperature, 1 hour. On the procedure: (a) An in vitro binding assay which assesses the ability of a test compound to displace radiolabelled gastrin releasing peptide ([I^125 ]GRP) from the bombesin receptor of mouse Swiss 3T3 fibroblast cells. The test is similar to that described by I. Zachary and E. Rozengurt, Proc. Nat. Acad. Sci. U.S.A., 1985, 82, 7616, except that the cells are incubated at ambient temperature for 1 hour;

The text below walks through data of US5068222A, “Bombesin antagonists with deletion of net-residue at the C-terminus” (Imperial Chemical Industries PLC, priority 1987, dated 1991).

Where a SMILES comes first, the peptide text is derived from it. [ ]: non-standard residue; d: D form. The star is where a group is joined. Cbz = O=C(OCc1ccccc1)* A value given as a limit tells only on which side of the number the result lay.

T1 sequence (P21729 whole entry): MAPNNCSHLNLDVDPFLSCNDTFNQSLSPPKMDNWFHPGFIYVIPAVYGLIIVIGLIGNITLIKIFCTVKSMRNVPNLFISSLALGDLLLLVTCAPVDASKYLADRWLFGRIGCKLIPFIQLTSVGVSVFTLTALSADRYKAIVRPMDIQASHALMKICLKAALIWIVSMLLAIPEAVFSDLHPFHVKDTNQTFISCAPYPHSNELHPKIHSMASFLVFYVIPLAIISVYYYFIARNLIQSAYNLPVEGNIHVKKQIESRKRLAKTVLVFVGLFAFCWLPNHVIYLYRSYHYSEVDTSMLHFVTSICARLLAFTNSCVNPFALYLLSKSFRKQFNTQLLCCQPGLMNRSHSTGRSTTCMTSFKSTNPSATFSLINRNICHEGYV

In the case of [D-Phe^12, Leu^14 ]bombesin, the “bombesin-stimulated secretion of amylase” value in assay [1] was “inhibited”. As for [Tyr^4, D-Phe^12 ]bombesin, the “bombesin-stimulated secretion of amylase” value in assay [1] is recorded as “inhibited”. A word on the IC50: it is the concentration needed to halve the response being measured. The low end stands for inhibition by little substance, the high end for a need for much substance. `COC(=O)[C@H](CC(C)C)NC(=O)[C@H](CCCCNC(=O)OCc1ccccc1)NC(=O)[C@@H](C)NC(=O)[C@@H](NC(=O)[C@H](C)NC(=O)[C@H](Cc1c[nH]c2ccccc12)NC(=O)[C@H](Cc1c[nH]cn1)NC(C)=O)C(C)C` [Ac-His-Trp-Ala-Val-D-Ala-Lys(Z)-Leu-OMe] (Ac-HWAV[dA]K(Cbz)L-OMe): the “IC50 in test (c)” value in assay [2] was 0.1 mg/kg. The compound also displayed an IC50 in assay [3] of 0.1 nM. In the case of “[D-Glp^7, D-Ala^11, Ala^14 ]bombesin (7-14)”, the “antagonism of bombesin-induced hypothermia” value in assay [4] is “partial antagonist”. As to `CNC(=O)[C@H](CC(C)C)NC(=O)[C@H](Cc1c[nH]cn1)NC(=O)[C@@H](C)NC(=O)[C@@H](NC(=O)[C@H](C)NC(=O)[C@H](Cc1c[nH]c2ccccc12)NC(=O)[C@H](Cc1c[nH]cn1)NC(C)=O)C(C)C` [Ac-His-Trp-Ala-Val-D-Ala-His-Leu-NHMe] (Ac-HWAV[dA]HL-NHMe), the IC50 in assay [5] was 19.5 nM; in assay [3], 28 nM. Besides, the “IC50 in test (c)” value in assay [2] was less than 2 mg/kg. As to [D-Phe^12 ]bombesin, in assay [1], the “bombesin-stimulated secretion of amylase” value is reported as “inhibited”.
